Patent publication US20100129470A1, “METHOD OF TREATING BRAIN CANCER” (Myriad Pharmaceuticals, Incorporated, priority 2007, published 2010)
“Also recorded” adds a separate entry of the source. Where a name gives a salt, the structure may show the parent alone.

System: Subjects with Refractory Solid Tumors
Assay: Phase I clinical trial: open-label, dose-escalating, multiple-dose study of weekly intravenous administration
Assay type: in vivo
Conditions: human subjects
Experimental: An open-label, dose-escalating, multiple-dose study to define the safety, tolerability and phamacokinetics of weekly intravenous administration of (4-Methoxy-phenyl)-methyl-(2-methyl-quinazolin-4-yl)-amine hydrochloride was performed. A dosing schedule (each 4 week cycle) was performed for (4-Methoxy-phenyl)-methyl-(2-methyl-quinazolin-4-yl)-amine hydrochloride weekly for 3 weeks with no infusion on the fourth week of each cycle. Subjects with refractory solid tumors were enrolled in cohorts of 3. During Cycle 1, subjects were hospitalized during each infusion of (4-Methoxy-phenyl)-methyl-(2-methyl-quinazolin-4-yl)-amine hydrochloride and remained for observation and safety evaluation for approximately 24 hours following the end of the infusion. All subject had continuous telemetry for 2 hours prior to infusion, for 1-2 hour infusion and for 3 hours after the end of the infusion. Any clinically significant electrocardiographic (ECG) wave form abnormality was recorded and prolongation of the monitoring period extended at the discretion of the principal investigator.
Electrocardiograms were obtrained prior to starting the infusion and within 30 minutes of the end of infusion for each infusino of the first cycle. Electrocardiograms on Day 1 were obtained in triplicate 5 minutes apart.
Neurocognitive assessments were made by administration of the Mini-Mental State Examination (MMSE), the Hopkins Verbal Learning and timed Grooved Pegboard tests before administration of the intravenous infusion and approximately 24 hours of the infusion at each weekly administration of the first cycle.
On days 1, 8, and 15 of each cycle, vital signs were obtained prior to the first dose, at 15, 30, and 60 minutes after the initiation of the infusion, and at 0.5, 1, 1.5, 2, and 4 hours after the end of the intravenous infusion. Vital signs at all time points beyond the start of the intravenous infusion included heart rate, blood pressure and respirations. Temperature ws measured at the end of the infusion and 4 hours later.
Individual subjects were allowed to continue on repeated weekly×3 administrations every 28 days with no dose increase provided there was no unacceptable toxicity or disease progression.
Tumor response was evaluated by response evaluation criteria in solid tumors (RECIST) criteria. To prevent sever hypersensitivity reactions due to Cremophor® EL, subjects were premedicated with oral dexamethasone (20 mg) administered approximately 12 and 6 hours before the intrvenous infusion with (4-Methoxy-phenyl)-methyl-(2-methyl-quinazolin-4-yl)-amine hydrochloride, diphenhydramine (50 mg) or its equivalent administered intravenously 30-60 minutes before (4-Methoxy-phenyl)-methyl-(2-methyl-quinazolin-4-yl)-amine hydrochloride, and cimetidine (300 mg) or ranitidine (50 mg) administered intravenously 30-60 minutes before (4-Methoxy-phenyl)-methyl-(2-methyl-quinazolin-4-yl)-amine hydrochloride.

[1] = weekly i.v. infusion, 0.3-3.3 mg/m^2

## COc1ccc(N(C)c2nc(C)nc3ccccc23)cc1 [(4-Methoxy-phenyl)-methyl-(2-methyl-quinazolin-4-yl)-amine hydrochloride]
ECG, weekly i.v. infusion, 0.3-3.3 mg/m^2
  effects on cardiac conduction (PR, QRS or QTc): no significant effects
Weekly i.v. administration, various dosages, hydrochloride
  safety and tolerability: safe and well tolerated; also recorded: safe and tolerable
Weekly i.v. infusion for 3 weeks of each 4 week cycle, 0.3-3.3 mg/m^2
  peripheral cytotoxicity: no evidence of cytotoxity peripherally
[1]
  bradycardia: occasional episodes of bradycardia
  dose limiting toxicity: vascular in nature, manifested by an acute coronary syndrome
  intratumor bleeding: incidences of intratumor bleeding
  systolic blood pressure: dose-related increase
